Key:
[1] = tested on: NTM.V Ab in sera of HIV-positive and healthy individuals; test: ELISA IgG reactivity toward NTM peptide, non-heat-inactivated versus heat-inactivated sera; assay type: binding, human; settings: compared with the same heat-inactivated sera
Experimental: The antibody binding of individual patient sera (measured by ELISA assay for heat-inactivated sera dilution 1:100) was presented by single point.
(a) Healthy individuals, and (b) HIV-positive patients.
Reactivity of sera collected from the healthy HIV-negative as well as HIV-positive individuals was examined after heat-inactivation at 40° C. and 56° C. The heat treatment of sera was performed in duration of 10, 20 and 30 minutes. Based on the obtained results (FIG. 14), it can be concluded that release of the NTM.V Ab from immune complexes is temperature and time dependent. In these experiments IgG reactivity toward two forms of the NTM peptide were monitored, i.e. uncoupled and BSA-coupled forms. The reactivity patterns of both NTM forms were similar.

[2] = tested on: natural anti-VIP antibodies in sera of HIV-negative asthma patients; settings: sera of HIV-negative asthma patients with high titres of natural anti-VIP antibodies; cited from earlier work
viral infection = settings: cited from earlier work

Sequence | reactivity with non-heat-inactivated sera [1] | main end-point titre for hyperimmune sera [2] | reactivity of sera with the peptide [2] | blocking of viral infection (viral infection; in vivo as printed) | effect on lymphocyte function (viral infection; in vivo)
RSANFTDNAKTIIVQLNESVEIN [NTM, HIV-1 gp120-derived natural peptide] | very low reactivity | 1/10000 | strong reactivity | – | –
VVVRSLTFKTNKKT | – | – | – | effectively blocks viral infection | without impairing lymphocyte function

Source: patent US20010007017A1, “PEPTIDES WHICH REACT WITH ANTIBODY RE[…] […] FOR HIV DISEASE PROGRESSION” (priority 1996, published 2001)
